This is an account of results in PubChem BioAssay (NCI).

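Test compounds were applied to cells in 96-well plates for 48 hours at 5 doses. The concentration for 50% growth inhibition is given as GI50. TGI marks complete inhibition of growth.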

What all share (assay): inhibition of tumour cell growth, NCI panel, 48 h
Test [1] has as its system 786-0 renal.
For test [2], the system named is UACC-62 melanoma.
The subject of test [3] is SW-620 colon.
The subject of test [4] is A498 renal.
The test system of test [5] is SF-539 CNS.
Test [6] has as its system M14 melanoma.
The subject of test [7] is ACHN renal.
Test [8] deals with SR leukemia.
Test [9] concerns SNB-75 CNS.
Test [10] deals with SN12C renal.

With `O=C1COCCN1c1ccc(NCc2cn(Cc3ccc(F)cc3)c3ccccc23)cc1`, the GI50 in test [1] was 2.7 µM; in [2], 0.0978 µM; in test [3], 0.562 µM; in [4], 0.0203 µM; in test [5], 7.36 µM; in test [6] it was 5.46 µM. Also, the GI50 was 2.91 µM in [7], 3.84 µM in [8], 2.03 µM in [9] and 4.08 µM in [10]. Also, the TGI is 41 µM in test [1]; 0.617 µM in test [2]; more than 52.6 µM in test [3]; 0.0821 µM in test [4]; 33.1 µM in [5]; 40.8 µM in test [6]. For the same compound, the TGI in test [7] is 31.4 µM; in test [8] it was more than 100 µM; in test [9] it was 13 µM; in [10] it was more than 83.7 µM.
Consider `NC(CSC(c1ccccc1)(c1ccccc1)c1ccc(Br)cc1)C(=O)O` (stereo unspecified), for which the GI50 in test [1] is 0.119 µM; in test [2], 0.17 µM; in test [3] it was 0.1 µM; in test [4], 0.259 µM; in test [5], 0.11 µM; in test [6], 0.0318 µM. Besides, the GI50 was 11.6 µM in test [7], 1.33 µM in test [8], 0.729 µM in test [9] and 0.3 µM in test [10]. Besides, the TGI is 1.58 µM in test [1]; 17.4 µM in test [2]; 27.7 µM in test [3]; 32.5 µM in [4]; 13.5 µM in test [5]; 0.146 µM in test [6]. In addition, the TGI is more than 100 µM in [7], more than 38.7 µM in [8], more than 50.8 µM in test [9] and 49.8 µM in test [10].
On to `O=P1(NCCCl)OCCC(OO)N1CCCl` (stereo unspecified), for which the TGI in test [1] was 99.7 µM; in test [2], 63.7 µM; in test [3] it was 30.5 µM; in test [4], more than 93.3 µM; in test [5] it was 33 µM; in test [6], more than 57 µM. The TGI in [7] was 33 µM; in test [8], more than 100 µM; in test [9], 97 µM; in test [10], more than 100 µM.
As to `Clc1ccc2c(NCCCNCc3ccc4c(c3)OCO4)ccnc2c1`, the GI50 is 2.88 µM in test [1]; 2.02 µM in test [2]; 2.96 µM in [3]; 14.4 µM in [4]; 1.85 µM in [5]; 1.74 µM in test [6]. Besides, the GI50 in test [7] was 3.45 µM; in [8], 1.99 µM; in test [9] it was 1.52 µM; in test [10], 8.26 µM. For the same compound, the TGI was 12 µM in [1]; 3.89 µM in [2]; 11.1 µM in test [3]; 27.6 µM in test [4]; 3.41 µM in test [5]; 3.42 µM in [6]. Moreover, the TGI turned out to be 12 µM in test [7], 4.67 µM in test [8], 3.37 µM in [9] and 21.6 µM in test [10].
`C=C(C=O)[C@@H]1CC=C(C=O)CC1`: the GI50 was 16.8 µM in test [1]; 3.14 µM in test [2]; 28.8 µM in [4]; 9.88 µM in test [5]; 2.75 µM in test [7]; 5.48 µM in [8]. Further, the GI50 was 15.9 µM in [9] and 4.31 µM in [10]. Also, the TGI was 80 µM in test [1]; 12.2 µM in test [2]; 77.8 µM in test [4]; 33.5 µM in [5]; 9.65 µM in test [7]; more than 100 µM in [8]. Also, the TGI was more than 100 µM in test [9] and 33.9 µM in test [10].
In the case of `O=c1c(Br)ccc(Br)cc1Br`, the GI50 in [1] was 2.07 µM; in test [2] it was 1.75 µM; in test [3], 0.268 µM; in [4], 14.7 µM; in test [5], 1.92 µM; in test [6] it was 1.48 µM. The GI50 in [7] was 1.26 µM; in test [8], 0.367 µM; in [9] it was 1.83 µM; in test [10] it was 2.11 µM. The TGI was determined as 3.7 µM in test [1]; 3.27 µM in test [2]; 0.673 µM in test [3]; 28.5 µM in test [4]; 4.52 µM in test [5]; 2.91 µM in test [6]. Moreover, the TGI in test [7] stood at 2.53 µM; in [8], 1.48 µM; in test [9], 4.24 µM; in test [10] it was 4.68 µM.
With `NC1=C(O)/C(=N/NS(=O)(=O)c2ccccc2)C(c2cccc(Cl)c2)O1` (stereo unspecified), the TGI in test [1] was 68.5 µM; in test [2] it was 66.7 µM; in test [3], 35.8 µM; in [4], more than 100 µM; in [5] it was more than 81.8 µM; in test [6], 67.6 µM. Also, the TGI in test [7] was more than 84.1 µM; in [8], 9.15 µM; in test [9] it was more than 80.4 µM; in test [10], more than 67.2 µM.
Take `C/C(=N\O)c1ccc(Nc2cc(-c3ccccc3)nc3c(O)cccc23)cc1`: the GI50 was 17.2 µM in test [1]; 13.4 µM in [2]; 13.9 µM in test [3]; 14.5 µM in test [4]; 15.3 µM in test [5]; 16.2 µM in test [6]. The GI50 was 10.7 µM in test [7], 1.27 µM in test [8], 16.3 µM in test [9] and 11.9 µM in test [10]. In addition, the TGI in test [1] was determined as 31.8 µM; in test [2], 27.1 µM; in test [3], 34.2 µM; in test [4], 31 µM; in test [5], 29.6 µM; in test [6] it was 31.3 µM. In addition, the TGI in [7] was 28.2 µM; in test [8] it was 24.1 µM; in test [9], 31.8 µM; in test [10] it was 27.6 µM.
